Patent US20240093034A1, “FLUORESCENT DYES” (EXOPHARM LIMITED, priority 2020, published 2024)

System: MSC-EVs
Assay: Dye labelling of MSC-EV preparations analysed by imaging flow cytometry (IFCM)
Experimental: MSC-EVs were prepared form human platelet lysate containing MSC-conditioned media by polyethylene glycol 6000 precipitation followed by ultracentrifugation, as described previously (Borger, V. et al, 2020, Scaled Isolation of Mesenchymal Stem/Stromal Cell-Derived Extracellular Vesicles. Curr Protoc Stem Cell Biol 55, e128; Kordelas et al., 2014, MSC-derived exosomes: a novel tool to treat therapy-refractory graft-versus-host disease. Leukemia 28, 970-973; Ludwig et al., 2018, Precipitation with polyethylene glycol followed by washing and pelleting by ultracentrifugation enriches extracellular vesicles from tissue culture supernatants in small and large scales. J Extracell Vesicles 7, 1528109). Conditioned media were harvested every 48 h. Obtained MSC-EV preparations were diluted in NaCl-HEPES buffer (Sigma-Aldrich, Taufkirchen, Germany) such that 1 mL of final samples contained the preparation yield of the conditioned media of approximately 4.0×10^7 cells.
The staining with CFSE (Thermo Fisher Scientific, Darmstadt, Germany) was based on the manufacturer's protocol. Slight modifications were required to reduce the signal from unbound CFSE. Briefly, the CFSE stock solution was diluted to a working solution of 10 μM CFSE. The solution was centrifuged three times for 10 min at 17,000 × g. Subsequently, 25 μL of MSC-EV preparations, corresponding to the amount of EVs derived from 1×10^6 MSCs, were incubated with the centrifuged CFSE solution for 20 min at 37° C. The sample was diluted 1:20 to a final volume of 1 mL prior to analysis.
The staining of MSC-EV preparations with Calcein AM followed the manufacturer's instructions. Briefly, 25 μL of MSC-EV preparations were incubated with 25 μL of a 20 μM solution of Calcein AM (Thermo Fisher Scientific) for 40 min at 37° C. The sample was diluted 1:20 to a final volume of 1 mL to reduce background noise, avoiding the requirement of a washing step.
The staining of MSC-EV preparations with BODIPY-TR-Ceramide followed the manufacturer's instructions. Briefly, 25 μL of the MSC-EV preparation, corresponding to EVs purified from […], were incubated with 25 μL of a 20 μM solution of BODIPY TR Ceramide (Thermo Fisher Scientific) for 20 min at 37° C. 450 μL of 0.9% NaCl with 10mM HEPES (0.9% NaCl, Melsungen, B. Braun; HEPES, Thermo Fisher Scientific) buffer was added and the EVs were washed by using a Centrifugal Concentrator (Vivaspin 500; Sartorius, Gottingen, Germany). The retentate was adjusted to 500 μL prior to analysis.
The staining of MSC-EV preparations with PKH67 followed the manufacturer's instructions for labeling EVs (Thermo Fisher Scientific). Briefly, using 200 μL of given MSC-EV preparations, corresponding to EVs purified from 8×10^6 cells, the solution was adjusted with Diluent C to a final volume of 1 mL. […]

Substance: Calcein AM [reference compound]
- labelling of sEVs in MSC-EV preparations (conclusion) (IFCM, with anti-CD9, anti-CD63, anti-CD81 counterstaining where done): do not Label
- labelled objects in MSC-EV preparations (FIG. 8) (dye + MSC-EVs): failed to label any detectable objects
